Reference: patent publication US4762843A, “Hetero [f] fused carbocyclic pyridines as dopaminergic agents” (Warner-Lambert Company, priority 1987, dated 1988)
Counter-ions that a name gives are not always drawn. Like-named read-outs stand apart in the source and are kept apart here.

Legend:
[1] = system: locomotor activity in mice; test: Inhibition of locomotor activity in mice; format: in vivo; conditions: Mus musculus, read-out: Inhibition of Locomotor Activity in Mice (ED50)
Method: (§1) The compounds of formula I are valuable dopaminergic agents. […] Thus, the compounds of formula I were tested for their ability to inhibit locomotor activity in mice according to the assay described in Pharmacol. Biochem. Behav. 1978 (8) 97; for their ability to inhibit haloperidol binding in a receptor binding assay described in Mol. Pharmacol. 1976 (12) 800; and for their ability to inhibit dopamine synthesis in rats according to the protocol described in Naumyn-Schmiedeberg's Arch. Pharmacol., 1976 (296) 5. The above test methods are incorporated herein by reference.

[2] = biological target: T1, haloperidol binding (Bos taurus, UniProt P20288); test: Inhibition of haloperidol binding in a receptor binding assay; conditions: read-out: Percent Inhibition Haloperidol Binding
T1 construct: from tissue
Method: as §1

[3] = system: dopamine synthesis; test: Inhibition of dopamine synthesis in rats; format: in vivo; conditions: Rattus norvegicus, read-out: Percent Inhibition of Dopamine Synthesis
Method: as §1

T1 sequence (P20288 whole entry): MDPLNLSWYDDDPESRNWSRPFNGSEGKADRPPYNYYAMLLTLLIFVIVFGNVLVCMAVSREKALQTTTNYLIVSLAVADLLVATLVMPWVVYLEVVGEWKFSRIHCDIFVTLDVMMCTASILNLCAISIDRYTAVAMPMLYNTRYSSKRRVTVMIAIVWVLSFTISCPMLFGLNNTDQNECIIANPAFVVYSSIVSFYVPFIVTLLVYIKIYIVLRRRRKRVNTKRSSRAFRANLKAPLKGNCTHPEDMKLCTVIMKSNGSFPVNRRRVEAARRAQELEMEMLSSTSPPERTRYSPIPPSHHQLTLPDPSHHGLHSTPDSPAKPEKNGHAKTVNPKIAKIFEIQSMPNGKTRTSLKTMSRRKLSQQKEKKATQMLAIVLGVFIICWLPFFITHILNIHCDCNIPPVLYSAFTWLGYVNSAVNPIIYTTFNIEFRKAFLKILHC

Row | SMILES | ED50 ([1]; ip) [mg/kg] | inhibition at 5 µM [2] [%] | ED50 ([1]; mice, IP) [mg/kg] | further results
1 | CCCN1CCC=C2c3nc(N)sc3CCC21 (racemic) [Example 5, (±) 4,5,5a,6,7,8-Hexahydro-6-propylthiazolo[4,5-f]quinolin-2-amine] | 5.5 |  |  | inhibition at 1 µM [2]: 43%; inhibition at 5 mg/kg [3]: 53%
2 | CN1CCC=C2c3nc(N)sc3CCC21 (racemic) [Example 5a, (±) 4,5,5a,6,7,8-Hexahydro-6-methylthiazolo[4,5-f]quinolin-2-amine] | 2.6 | 62 |  | inhibition at 10 mg/kg [3]: 92%
3 | CCN1CCC=C2c3nc(N)sc3CCC21 (racemic) [Example 5b, (±) 6-Ethyl-4,5,5a,6,7,8-hexahydrothiazolo[4,5-f]quinolin-2-amine] | 0.62 | 68 |  | inhibition at 1 mg/kg [3]: 60%
4 | CCCCN1CCC=C2c3nc(N)sc3CCC21 (racemic) [Example 5c, (±) 6-Butyl-4,5,5a,6,7,8-hexahydrothiazolo[4,5-f]quinolin-2-amine, dihydrochloride, hemihydrate] | 14.7 |  |  | inhibition at 10 µM [2]: 70%; inhibition at 10 mg/kg [3]: 18%
5 | C=CCN1CCC=C2c3nc(N)sc3CCC21 (racemic) [Example 5d, (±) 4,5,5a,6,7,8-Hexahydro-6-(2-propenyl)thiazolo [4,5-f]quinolin-2-amine, dihydrochloride] | 0.24 |  |  | inhibition at 5 mg/kg [3]: 100%
6 | Nc1nc2c(s1)CCC1C2=CCCN1CC1CC1 (racemic) [Example 5e, (±) 6-(Cyclopropylmethyl)-4,5,5a,6,7,8-hexahydrothiazolo[4,5-f]quinolin-2-amine, dihydrochloride] | 12 |  |  | inhibition at 1 µM [2]: 62%
7 | Nc1nc2c(s1)CCC1C2=CCCN1CCc1ccccc1 (racemic) [Example 5f, (±) 4,5,5a,6,7,8-Hexahydro-6-(2-phenylethyl)thiazolo [4,5-f]quinolin-2-amine] |  |  | 31.3 | inhibition at 5 µM ([2]; at 5 × 10^-6 M): 67%
8 | Nc1nc2c(s1)CCC1C2=CCCN1Cc1ccccc1 (racemic) [Example 5g, (±) 4,5,5a,6,7,8-Hexahydro-6-(phenylmethyl)thiazolo [4,5-f]quinolin-2-amine, dihydrochloride, hydrate] |  |  | 26.1 | inhibition at 5 µM ([2]; at 5 × 10^-6 M): 61%
9 | CCCN1CCC=C2c3nc(NC(C)=O)sc3CCC21 (racemic) [Example 15a, (±) N-(4,5,5a,6,7,8-Hexahydro-6-propylthiazolo[4,5-f]quinolin-2-yl)acetamide] |  |  | 16.3 | inhibition at 5 µM ([2]; at 5 × 10^-6 M): 23%
10 | C=CCN1CCC=C2c3nc(NC(C)=O)sc3CCC21 (racemic) [Example 15b, (±) N-[4,5,5a,6,7,8-Hexahydro-6-(2-propenyl)thiazolo [4,5-f]quinolin-2-yl]acetamide] |  |  | 3.1 | inhibition at 10 µM ([2]; at 1 × 10^-5): 21%; inhibition at 5 mg/kg ([3]; rats, at 5 mg/kg): 82%
11 | CCCN1CCC[C@H]2c3sc(N)nc3CC[C@@H]21 (racemic) [Example 17, (±) trans-4,5,5a,6,7,8,9,9a-Octahydro-6-propylthiazolo[5,4-f]quinolin-2-amine] | 0.7 |  |  | inhibition at 1 µM [2]: 37%; inhibition at 5 mg/kg [3]: 100%
12 | Nc1nc2c(s1)CCC1NCCC=C21 (racemic) [Example 40, (±) 4,5,5a,6,7,8-Hexahydrothiazolo[4,5-f]quinolin-2-amine, dihydrochloride] | 11.6 | 77 |  | inhibition at 10 mg/kg [3]: 44%
13 | CCCN1CCC=C2c3nc(N)sc3CCC21 (single isomer, unassigned; (+)) [Example 16, (+) 4,5,5a,6,7,8-hexahydro-6-propylthiazolo[4,5-f]quinolin-2-amine, dihydrochloride] | 2.5 | 76 |  | inhibition at 3 mg/kg [3]: 100%
